Measurements from US9878007B2, “Syndecan peptides and polypeptides as inhibitors of vascular endothelial growth factor receptor-2 (VEGFR2) and very late antigen-4 (VLA-4)” (Wisconsin Alumni Research Foundation, priority 2015, dated 2018).

Columns and labels:
CAG myeloma cells [1] = experiment: Cell spreading / attachment assay of CAG myeloma cells on FN or VCAM-1; type: cell-based, human
Method: Nitrocellulose-coated slides were coated for 2 hr at 37° C. with 40 μg/ml FN (kindly provided by Dr. Donna Peters, University of Wisconsin-Madison) or 5 μg/ml recombinant VCAM-1/Fc chimera (R&D Systems) in calcium and magnesium-free PBS (CMF-PBS; 135 mM NaCl, 2.7 mM KCl, 10.2 mM Na2HPO4-7H20 and 1.75 mM KH2PO4, pH7.4). Slides were blocked for 1 hr at 37° C. with RPMI 1640 containing 1% heat-denatured BSA (plating medium). Cells in plating medium were allowed to attach and spread for 2.5 hr at 37° C. Slides were fixed in 4% EM grade paraformaldehyde (Electron Microscopy Sciences) in CMF-PBS and labeled for 30 min in 0.13 μM rhodamine phalloidin (Invitrogen) in CMF-PBS. Coverslips were mounted in non-fluorescing mounting medium (Immumount; Thermo Shandon) and allowed to dry. All images were acquired with a Nikon Microphot FX microscope using a 20× objective (Nikon; Ex 541-551, DM 580, Barrier 590), Photometric CoolSnap ES camera, and version 7.7.3.0 Metamorph© Imaging software (Molecular Devices). All images represent results from triplicate wells and at least three independent experiments.

VLA-4 = biological target: T1, VLA-4 (Homo sapiens, UniProt P05556+P13612); experiment: GST pull down assay: capture of VLA-4 by GST-S1ED; type: binding; settings: HPSE^low cell lysates; peptide 30 M [sic]
T1 construct: the α4-integrin (VLA-4), which is expressed on myeloma cells; endogenous in cells; host or cells: CAG human myeloma cells (HPSE^low), whole-cell lysate
Method: (§1) FIGS. 6A-G. Peptides derived from the active site in Sdc1 activate or inhibit adhesion and invasion. (FIG. 6A) Transwell migration assays towards FN (for 16 hrs) were performed for HPSE low or high cells in the presence of 0, 0.3, 3, and 30 μM of S1ED^210-240. Cells migrating to the bottom side of the filter were counted from five random images for each treatment. (FIG. 6B) The sequence of S1ED210-240 is shown (SEQ ID NO: 3), as well as […] truncation mutants of the peptide (SEQ ID NOs: 5, 2, 4 and 7). Amino acids shown in red appear necessary for the spreading and invasive activity. (FIG. 6C) Images of HPSE^low and HPSE^high cells plated on FN for 2 hr. (FIG. 6D) HPSE^low cells were treated with 0, 0.3, 3, 10 and 30 μM of S1ED^210-236, S1ED^210-233, or S1ED^214-240, plated on FN for 2 hr, fixed and stained with fluorescent phalloidin. Cells from five random images were quantified for cell attachment and cell spreading. (FIG. 6E) HPSE^high cells were treated with 0, 3, 10, and 30 μM of S1ED^210-236, S1ED^210-233, and S1ED^214-240, plated on FN for 2 hr, then fixed, imaged and quantified as in FIG. 6D. (FIG. 6F) Transwell migration assays towards FN (for 16 hr) were performed for HPSE^low or HPSE^high cells in the presence of 30 μM of S1ED^210-236, S1ED^210-233, S1ED^214-240 and Vandetanib. (FIG. 6G) HPSE^low cell lysates were incubated overnight with glutathione beads coated with GST or GST-S1ED in the absence or presence of 30 μM of S1ED^210-236, S1ED^210-233, and S1ED^214-240. Capture of VLA-4 or VEGFR2 was detected by immunoblotting. Sequences in FIG. 6B are 210-240 (SEQ ID NO: 3), 210-236 (SEQ ID NO: 2), 210-233 (SEQ ID NO: 4), 214-240 (SEQ ID NO: 5) and 214-236 (SEQ ID NO: 7).
(§2) CAG cells were washed with CMF-PBS and then lysed for 20 min on ice in lysis buffer. Cell debris was removed by centrifugation at 13000 rpm for 20 min at 4° C. Whole cell lysates were then incubated at 4° C. overnight with either 3 μM GST or 3 μM GST-S1ED in the absence or presence of 1 μM, 3 μM, and 10 μM S1ED^210-240 peptide. GST or GST-S1ED was captured by addition of glutathione Sepharose and the beads were washed with ice-cold lysis buffer and CMF-PBS, prior to addition of SDS-PAGE sample buffer and analyszed by electrophoresis and western blotting as described previously.

VEGFR2 = biological target: T2, VEGFR2 (Homo sapiens, UniProt P35968); experiment: GST pull down assay: capture of VEGFR2 by GST-S1ED; type: binding; settings: HPSE^low cell lysates; peptide 30 M [sic]
T2 construct: endogenous in cells; host or cells: CAG human myeloma cells (HPSE^low = empty vector; HPSE^high = human HPSE cDNA)
Method: as §1, §2

HMEC-1 cells [2] = experiment: Attachment and spreading of HMEC-1 cells on IIICS; type: cell-based; settings: plated on IIICS; 30 μM peptides, 125 μg/ml SST0001, 10 μg/ml MMP9 blocking antibody
Method: (§3) FIGS. 8A-H. HPSE mediated the Sdc1-coupled VEGFR2 complex in endothelial cells induces angiogenesis. (FIG. 8A) Lysates from HPSE^low, HPSE^high and HMEC-1 cells are probed by immunoblotting for expression of HPSE. (FIG. 8B) HMEC-1 cells were seeded at equal density and grown in serum-free media for 24 hr in the absence or presence of 125 μg/ml of the HPSE inhibitor SST0001. After 24 hr, conditioned media were harvested, and the level of shed Sdc1 in the conditioned medium from each condition was determined by immunoblotting. (FIG. 8C) HMEC-1 cell lysate was incubated overnight with glutathione beads coated with GST or GST-S1ED. Capture of VLA-4 or VEGFR2 was detected by immunoblotting. (FIG. 8D) HMEC-1 cells were plated on IIICS for 3 hr and double stained for VLA-4 and Sdc1, VEGFR2 and Sdc1, or VLA-4 and VEGFR2. (FIG. 8E) HMEC-1 cells were treated with DMSO, VLA-4 blocking antibody P1H4, β1-integrin blocking antibody mAb13, 10 μg/ml MMP9 blocking antibody, 125 μg/ml HPSE inhibitor SST0001, Vandetanib, VEGFR2 blocking antibody, 30 μM S1ED^210-233 or 30 μM S1ED^214-240 and then plated on IIICS. Images were taken from random field with 200× magnification for counting attached and spread cells. (FIG. 8F) HMEC-1 cells were plated on IIICS in the presence of 10 μM of S1ED^210-236, S1ED^210-233, S1ED^215-240, and S1ED^214-240. […]

HMEC-1 cells [3] = experiment: Transwell migration / invasion assay of HMEC-1 cells; type: cell-based; settings: 16 hr
Method: as §3, with “S1ED^214-240. Lysates were probed on immunoblots with antibodies against pY^1175 VEGFR2 and VEGFR2. (FIG. 8G) Transwell migration assays towards IIICS (for 16 hr) were performed for HMEC-1 cells in the presence of P1H4, SST0001, Anti-MMP9, Vandetanib, S1ED^210-236, S1ED^210-233, and S1ED^214-240. Images were taken from random field with 200× magnification for counting migrated cells. (FIG. 8H) A 96-well plate coated with 50 μl Matrigel containing 100 μg/ml IIICS per well was solidified at 37° C. for 2 hrs.” for “S1ED^214-240.”
The bottom chambers of Transwell filter chambers (8 μm pores; Corning) were coated with 40 μg/ml of FN. […] Cells from at least five random fields were counted.

HMEC-1 cells [4] = experiment: In vitro tube formation assay of HMEC-1 cells on Matrigel; type: cell-based; settings: 24 hrs, 10 μM peptides
Method: FIGS. 8A-H. HPSE mediated the Sdc1-coupled VEGFR2 complex in endothelial cells induces angiogenesis. (FIG. 8A) Lysates from HPSE^low, HPSE^high and HMEC-1 cells are probed by immunoblotting for expression of HPSE. (FIG. 8B) HMEC-1 cells were seeded at equal density and grown in serum-free media for 24 hr in the absence or presence of 125 μg/ml of the HPSE inhibitor SST0001. After 24 hr, conditioned media were harvested, and the level of shed Sdc1 in the conditioned medium from each condition was determined by immunoblotting. (FIG. 8C) HMEC-1 cell lysate was incubated overnight with glutathione beads coated with GST or GST-S1ED. Capture of VLA-4 or VEGFR2 was detected by immunoblotting. (FIG. 8D) HMEC-1 cells were plated on IIICS for 3 hr and double stained for VLA-4 and Sdc1, VEGFR2 and Sdc1, or VLA-4 and VEGFR2. (FIG. 8E) HMEC-1 cells were treated with DMSO, VLA-4 blocking antibody P1H4, β1-integrin blocking antibody mAb13, 10 μg/ml MMP9 blocking antibody, 125 μg/ml HPSE inhibitor SST0001, Vandetanib, VEGFR2 blocking antibody, 30 μM S1ED^210-233 or 30 μM S1ED^214-240 and then plated on IIICS. Images were taken from random field with 200× magnification for counting attached and spread cells. (FIG. 8F) HMEC-1 cells were plated on IIICS in the presence of 10 μM of S1ED^210-236, S1ED^210-233, S1ED^215-240, and S1ED^214-240. Lysates were probed on immunoblots with antibodies against pY^1175 VEGFR2 and VEGFR2. (FIG. 8G) Transwell migration assays towards IIICS (for 16 hr) were performed for HMEC-1 cells in the presence of P1H4, SST0001, Anti-MMP9, Vandetanib, S1ED^210-236, S1ED^210-233, and S1ED^214-240. Images were taken from random field with 200× magnification for counting migrated cells. (FIG. 8H) A 96-well plate coated with 50 μl Matrigel containing 100 μg/ml IIICS per well was solidified at 37° C. for 2 hrs. HMEC-1 cells (2.5×10^4 cells/well) were seeded into the plate and cultured in media containing VEGF, SST0001, 10 μM of S1ED^210-236, S1ED^210-233, S1ED^215-240, and S1ED^214-240 for 24 hrs. Enclosed capillary networks of tubes were taken from random field with 200× magnification.

CAG myeloma cells [5] = experiment: Cell spreading / attachment assay of CAG myeloma cells on FN or VCAM-1; type: cell-based, human; settings: on FN, 2 hr
[6] = test system: P3x63Ag8 mouse myeloma cells; experiment: Invasion of P3x63Ag8 myeloma cells through FN-coated filters; type: cell-based; settings: 16 hr
Method: FIG. 7A-B. S1ED^214-236, specific for VEGFR2 coupling to VLA-4, blocks myeloma cell invasion but not adhesion. (FIG. 7A) P3x63Ag8 mouse myeloma cells are plating on the VLA-4 ligand FN in the presence or absence of 30 uM S1ED^210-233 (SEQ ID No: 4) or S1ED^214-236 (SEQ ID No: 7) for 2.5 hr. (FIG. 7B) P3x63Ag8 myeloma cells are plated on FN-coated filters in the presence of HPSE inhibitor OGT2115, VLA-4 blocking antibody P1H4, VEGFR2 inhibitor Vandetanib or S1ED^210-233 or S1ED^214-236 and allowed to migrate through the filter for 16 hr. Small black dots are the pores in the filter.
The bottom chambers of Transwell filter chambers (8 μm pores; Corning) were coated with 40 μg/ml of FN. Cells (5×10^5 in 0.2 ml plating medium) were placed in the upper chamber and incubated for 16 hr at 37° C. in the CO2 incubator. After incubation, cells in the upper chamber were removed and cells on the bottom side of the filter were fixed in 4% paraformaldehyde (PFA) and stained with 0.1% Crystal Violet before imaging. Cells from at least five random fields were counted.

T2 sequence (P35968 20-1356): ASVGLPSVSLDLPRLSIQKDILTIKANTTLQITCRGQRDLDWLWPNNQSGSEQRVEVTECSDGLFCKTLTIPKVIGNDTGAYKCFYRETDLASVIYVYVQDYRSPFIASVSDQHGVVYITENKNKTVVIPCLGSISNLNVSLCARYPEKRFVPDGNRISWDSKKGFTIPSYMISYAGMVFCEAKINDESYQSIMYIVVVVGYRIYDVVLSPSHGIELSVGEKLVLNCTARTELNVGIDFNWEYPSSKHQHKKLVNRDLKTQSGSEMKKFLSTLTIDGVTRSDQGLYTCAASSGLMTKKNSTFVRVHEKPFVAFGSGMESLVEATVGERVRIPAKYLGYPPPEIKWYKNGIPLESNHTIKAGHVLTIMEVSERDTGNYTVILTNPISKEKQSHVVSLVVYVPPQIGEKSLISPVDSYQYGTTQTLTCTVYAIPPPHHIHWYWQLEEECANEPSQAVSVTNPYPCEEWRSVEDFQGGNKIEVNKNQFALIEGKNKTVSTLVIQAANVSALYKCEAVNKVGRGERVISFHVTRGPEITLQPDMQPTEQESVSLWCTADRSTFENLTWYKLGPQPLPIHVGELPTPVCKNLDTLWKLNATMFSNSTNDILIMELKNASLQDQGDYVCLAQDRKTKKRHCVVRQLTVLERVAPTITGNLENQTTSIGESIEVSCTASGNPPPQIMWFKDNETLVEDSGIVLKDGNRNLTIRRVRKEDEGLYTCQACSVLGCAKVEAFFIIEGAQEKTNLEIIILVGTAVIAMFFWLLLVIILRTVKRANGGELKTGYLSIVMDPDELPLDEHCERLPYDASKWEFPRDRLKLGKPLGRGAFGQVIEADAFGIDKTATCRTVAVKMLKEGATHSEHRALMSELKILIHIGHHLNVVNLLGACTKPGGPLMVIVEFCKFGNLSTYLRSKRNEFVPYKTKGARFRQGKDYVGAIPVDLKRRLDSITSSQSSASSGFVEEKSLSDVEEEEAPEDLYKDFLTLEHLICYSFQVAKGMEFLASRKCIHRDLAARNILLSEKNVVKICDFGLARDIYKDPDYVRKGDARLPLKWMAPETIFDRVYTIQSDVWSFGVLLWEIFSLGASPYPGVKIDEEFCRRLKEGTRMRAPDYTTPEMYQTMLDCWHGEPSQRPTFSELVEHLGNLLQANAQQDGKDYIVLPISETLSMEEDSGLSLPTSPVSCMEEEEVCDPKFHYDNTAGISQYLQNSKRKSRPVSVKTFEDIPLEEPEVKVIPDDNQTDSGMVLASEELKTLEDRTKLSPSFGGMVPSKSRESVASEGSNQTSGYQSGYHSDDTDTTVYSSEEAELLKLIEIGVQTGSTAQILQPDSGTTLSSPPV
T1 sequence (P13612 34-1032): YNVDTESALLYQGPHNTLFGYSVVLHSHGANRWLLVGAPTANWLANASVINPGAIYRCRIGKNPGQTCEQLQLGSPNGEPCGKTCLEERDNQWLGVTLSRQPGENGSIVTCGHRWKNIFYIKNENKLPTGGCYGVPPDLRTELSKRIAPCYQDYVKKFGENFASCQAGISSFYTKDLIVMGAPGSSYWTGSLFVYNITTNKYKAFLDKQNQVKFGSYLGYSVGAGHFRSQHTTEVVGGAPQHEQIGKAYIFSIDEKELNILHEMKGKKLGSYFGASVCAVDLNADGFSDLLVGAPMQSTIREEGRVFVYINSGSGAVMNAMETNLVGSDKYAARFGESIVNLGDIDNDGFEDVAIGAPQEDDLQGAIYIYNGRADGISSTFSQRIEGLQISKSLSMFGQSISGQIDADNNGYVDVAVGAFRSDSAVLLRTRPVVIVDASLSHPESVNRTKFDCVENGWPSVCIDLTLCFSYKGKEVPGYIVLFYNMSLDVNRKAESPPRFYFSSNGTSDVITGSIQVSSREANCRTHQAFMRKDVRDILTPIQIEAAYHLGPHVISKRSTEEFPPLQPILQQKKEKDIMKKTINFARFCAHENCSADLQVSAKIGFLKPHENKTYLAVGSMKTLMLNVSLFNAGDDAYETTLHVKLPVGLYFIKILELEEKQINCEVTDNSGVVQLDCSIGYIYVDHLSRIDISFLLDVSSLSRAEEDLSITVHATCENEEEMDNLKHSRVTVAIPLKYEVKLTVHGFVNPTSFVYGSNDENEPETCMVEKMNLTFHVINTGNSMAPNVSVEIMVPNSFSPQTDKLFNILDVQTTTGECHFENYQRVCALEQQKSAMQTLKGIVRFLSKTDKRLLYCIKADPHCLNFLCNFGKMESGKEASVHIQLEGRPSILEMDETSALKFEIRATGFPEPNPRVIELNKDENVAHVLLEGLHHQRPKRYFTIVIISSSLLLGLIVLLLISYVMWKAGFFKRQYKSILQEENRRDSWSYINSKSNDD
T1 sequence (P05556 21-798): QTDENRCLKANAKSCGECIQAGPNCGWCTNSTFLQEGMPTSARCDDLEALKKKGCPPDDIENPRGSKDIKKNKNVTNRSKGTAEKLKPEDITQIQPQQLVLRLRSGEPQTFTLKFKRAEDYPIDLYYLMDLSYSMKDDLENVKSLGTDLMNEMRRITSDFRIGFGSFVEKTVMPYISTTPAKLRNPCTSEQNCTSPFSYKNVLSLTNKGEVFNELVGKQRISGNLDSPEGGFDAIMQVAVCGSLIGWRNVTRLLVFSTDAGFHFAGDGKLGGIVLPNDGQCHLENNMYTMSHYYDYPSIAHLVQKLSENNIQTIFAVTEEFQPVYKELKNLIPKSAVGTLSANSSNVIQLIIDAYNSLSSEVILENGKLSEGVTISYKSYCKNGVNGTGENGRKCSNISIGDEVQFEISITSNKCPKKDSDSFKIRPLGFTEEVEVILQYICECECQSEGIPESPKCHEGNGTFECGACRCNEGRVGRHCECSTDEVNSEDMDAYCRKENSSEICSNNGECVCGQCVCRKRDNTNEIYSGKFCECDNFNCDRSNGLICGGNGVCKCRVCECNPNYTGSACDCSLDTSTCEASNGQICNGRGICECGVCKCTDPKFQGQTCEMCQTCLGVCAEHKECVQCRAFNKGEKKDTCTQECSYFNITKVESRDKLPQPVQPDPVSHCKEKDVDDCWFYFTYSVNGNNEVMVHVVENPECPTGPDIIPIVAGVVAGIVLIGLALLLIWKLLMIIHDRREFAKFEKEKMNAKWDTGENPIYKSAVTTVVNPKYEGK

## S1ED^214-240: syndecan-1 ectodomain peptide, residues 214-240 (SEQ ID NO: 5) (ETSGENTAVVAVEPDRRNQSPVDQGAT)
CAG myeloma cells [1]; on VCAM-1, 0.3 μM peptide
  induction of HPSE^low cell spreading by S1ED peptides: do not
VLA-4
  competition for capture of VLA-4 by GST-S1ED: only competes for capture of VEGFR2
VEGFR2
  competition for capture of VEGFR2 by GST-S1ED: only competes for capture of VEGFR2
HMEC-1 cells [2]
  VLA-4 dependent spreading of HMEC-1 cells: prevented
HMEC-1 cells [3]
  invasion of HMEC-1 cells: all block invasion
HMEC-1 cells [4]
  tube formation by HMEC-1 cells: blocks tube formation
CAG myeloma cells [5]; 0, 0.3, 3, 10 and 30 μM peptide
  HPSE^low cell spreading: does not cause cell spreading
CAG myeloma cells [5]; 0, 3, 10 and 30 μM peptide
  HPSE^high cell adhesion: has no effect on cell adhesion
  HPSE^high cell spreading: blocks the spreading of HPSE^high cells
CAG myeloma cells [5]; high concentrations (30 μM)
  HPSE^low cell adhesion: does not cause cell spreading or block adhesion

## O=C(O)Cc1ccc2oc(-c3ccc(NC(=O)/C=C/c4ccc(Br)cc4)c(F)c3)nc2c1 [OGT2115, reference compound]
[6]
  invasion / migration of P3X cells through FN-coated filters: Cell migration is only observed in the untreated controls

B1: HPIII: heparinase III, a bacterial enzyme that completely degrades the HS (protein, UniProt Q59289 25-659, looked up)
Heparin-sulfate lyase: QSSSITRKDFDHINLEYSGLEKVNKAVAAGNYDDAAKALLAYYREKSKAREPDFSNAEKPADIRQPIDKVTREMADKALVHQFQPHKGYGYFDYGKDINWQMWPVKDNEVRWQLHRVKWWQAMALVYHATGDEKYAREWVYQYSDWARKNPLGLSQDNDKFVWRPLEVSDRVQSLPPTFSLFVNSPAFTPAFLMEFLNSYHQQADYLSTHYAEQGNHRLFEAQRNLFAGVSFPEFKDSPRWRQTGISVLNTEIKKQVYADGMQFELSPIYHVAAIDIFLKAYGSAKRVNLEKEFPQSYVQTVENMIMALISISLPDYNTPMFGDSWITDKNFRMAQFASWARVFPANQAIKYFATDGKQGKAPNFLSKALSNAGFYTFRSGWDKNATVMVLKASPPGEFHAQPDNGTFELFIKGRNFTPDAGVFVYSGDEAIMKLRNWYRQTRIHSTLTLDNQNMVITKARQNKWETGNNLDVLTYTNPSYPNLDHQRSVLFINKKYFLVIDRAIGEATGNLGVHWQLKEDSNPVFDKTKNRVYTTYRDGNNLMIQSLNADRTSLNEEEGKVSYVYNKELKRPAFVFEKPKKNAGTQNFVSIVYPYDGQKAPEISIRENKGNDFEKGKLNLTLTINGKQQLVLVP
CAG myeloma cells [1]; heparinase III pre-treatment before plating on FN and VCAM-1
  induction of HPSE^low cell spreading: induces spreading of HPSE^low cells comparable to that observed for HPSE^high cells
